Measured values taken from PMC12064818, “A general assay platform to study protein pharmacology using ligand-dependent structural dynamics” (Nature Communications, 2025).

Target: T1, FLuc-C-HiBiT (Photinus pyralis, UniProt P08659)
T1 construct: firefly luciferase with C-terminal HiBiT tag, E. coli expressed
Assay: biochemical
Settings: enzyme activity, 10 uM ATP; read-out: IC50 or SDR50 (mM) / FLuc E
Experimental: The enzyme activity of FLuc-N-HiBiT, FLuc-C-HiBiT, and FLuc-C-NLuc was measured similar to P. pyralis firefly luciferase (FLuc) as previously described. […] Compounds and controls were added to each plate as described in Supplementary Data 8 with a Hornet pintool system (Wako Automation). Compounds were incubated with respective enzymes for 30–60 min at room temperature protected from light and covered by solid metal lid to prevent evaporation. […] Luciferin was incubated with FLuc enzyme for 5 min before FLuc activity was then measured on a ViewLux CCD imager (PerkinElmer), with exposure times up to ten seconds with medium to high gain settings. Data were normalized to average no enzyme control as 100% enzyme inhibition and average DMSO neutral control. See Supplementary Table 4 for additional details. As a proof-of-concept target, we appended the sensor protein or corresponding α-peptide to either the N- or C-terminus of the target protein firefly luciferase (FLuc), an ATP cofactor-dependent monooxygenase (Supplementary Fig. 1a) having a broad, well-characterized and accessible ligand pharmacology. For initial characterization of the SDR concept, either NLuc or the 11 amino acid HiBiT tag (α-peptide) and complementary 18 kDa LgBiT subunit (ω-fragment), which self-assemble to reconstitute functional NLuc enzyme[24] were tested. In contrast to the ATP-dependent bioluminescent FLuc enzyme, NLuc generates a bright bioluminescence in an ATP-independent manner from the direct oxidation of furimazine (Supplementary Fig. 1b). […] Next, FLuc-C-NLuc, FLuc-N-HiBiT or FLuc-C-HiBiT were assayed with the same inhibitor in an SDR assay format by monitoring bioluminescence from NLuc or its reconstitution by α-complementation with LgBiT. Measurements of NLuc activity were made either in the absence or presence of the FLuc ATP cofactor, as NLuc bioluminescence is ATP-independent.

T1 sequence (P08659 whole entry, looked up): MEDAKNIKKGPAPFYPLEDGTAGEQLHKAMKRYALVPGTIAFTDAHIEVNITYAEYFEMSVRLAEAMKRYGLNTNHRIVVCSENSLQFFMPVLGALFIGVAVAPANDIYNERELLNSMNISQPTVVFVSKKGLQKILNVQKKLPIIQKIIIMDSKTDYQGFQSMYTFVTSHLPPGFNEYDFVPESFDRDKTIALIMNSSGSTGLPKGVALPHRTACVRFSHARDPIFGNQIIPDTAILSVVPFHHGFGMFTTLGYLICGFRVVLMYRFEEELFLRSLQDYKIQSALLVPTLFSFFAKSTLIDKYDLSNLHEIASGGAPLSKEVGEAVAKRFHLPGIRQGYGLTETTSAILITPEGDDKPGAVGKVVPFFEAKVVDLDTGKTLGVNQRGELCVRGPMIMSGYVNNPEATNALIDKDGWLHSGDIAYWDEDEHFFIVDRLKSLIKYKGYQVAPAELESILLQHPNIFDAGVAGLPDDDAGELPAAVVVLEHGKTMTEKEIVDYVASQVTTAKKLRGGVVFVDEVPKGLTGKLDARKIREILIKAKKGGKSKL

Compared with `COc1ccc(C(=O)Nc2cc([S+](=O)([O-])c3ccc(Cl)cc3)c(O)c(C)c2C)cc1` [NCGC00102574-01], `COc1ccc(C(=O)Nc2cc(-c3nc4ccccc4s3)ccc2OC)cc1` [NCGC00103028-01] is lower in IC50: over 30 µM for the first, 9.89 µM for the second.

Going from `COc1ccc(C(=O)Nc2ccccc2-c2nc3ccccc3s2)cc1OC` [NCGC00102625-01] to `COc1ccc(C(=O)Nc2cc(C)c(O)c(-c3nc4ccccc4s3)c2)cc1OC` [NCGC00103306-01], the IC50 falls from over 30 µM to 1.4 µM.

Compared with `COc1cccc2cc(C(=O)Nc3ccc(CC(=O)O)cc3)c(=O)oc12` [NCGC00102789-01], `CCn1c(=O)c(C(=O)Nc2ccc(C(C)=O)cc2)nc2ccccc21` [NCGC00107725-01] is 4-fold higher in IC50: 3.13 µM for the first, 12.4 µM for the second.

`Nc1nn(-c2ccccc2)nc1C(=O)OCc1ccccc1` [NCGC00102837-01] and `CCOC(=O)c1cc(-c2ccccc2)nn1Cc1ccccc1` [NCGC00108381-01] cannot be ordered by IC50: over 30 µM for the first, over 30 µM for the second.

`COc1ccc(Br)cc1C(=O)Nc1nc2ccc(F)cc2s1` [NCGC00102907-01] and `COc1ccc(-c2nc3ccccc3s2)cc1NC(=O)c1ccccc1F` [NCGC00103034-01] cannot be ordered by IC50: over 30 µM for the first, over 30 µM for the second.

First: CN1CCc2nc3sc(C(=O)Nc4cccc(C#N)c4)c(N)c3cc2C1 [NCGC00103003-01]
Second: COc1cccc(C(=O)Nc2cccc(OCc3cc(=O)n4c5c(sc4n3)CCCC5)c2)c1 [NCGC00111495-01]
The IC50 of the first is higher: over 30 µM for the first, 9.89 µM for the second.

`COc1ccc(-c2nc3ccccc3s2)cc1NC(=O)COc1ccc(C)cc1` [NCGC00103030-01] and `COc1ccc(-c2nc3ccccc3s2)cc1NC(=O)COc1ccccc1C` [NCGC00103036-01] cannot be ordered by IC50: over 30 µM for the first, over 30 µM for the second.

`COc1ccc(-c2nc3ccccc3s2)cc1NC(=O)c1ccc(F)cc1` [NCGC00103032-01] and `CCOc1ccc(C(=O)Nc2cc(-c3nc4ccccc4s3)ccc2OC)cc1` [NCGC00103040-01] cannot be ordered by IC50: over 30 µM for the first, over 30 µM for the second.

`COc1ccc(-c2nc3ccccc3s2)cc1NC(=O)c1ccc(C#N)cc1F` [NCGC00103038-01] and `N#Cc1ccc(C(=O)Nc2ccccc2-c2nc3ccccc3s2)c(F)c1` [NCGC00103058-01] cannot be ordered by IC50: over 30 µM for the first, over 30 µM for the second.

Going from `CCCOc1ccccc1C(=O)Nc1ccc(-c2nc3ccc(C)cc3s2)cc1` [NCGC00103054-01] to `Cc1ccc(C(=O)Nc2ccc(-c3nc4ccccc4s3)cc2C)cc1C` [NCGC00103062-01], the IC50 rises from 6.24 µM to over 30 µM.

`COc1cc(OC)cc(C(=O)Nc2ccc(-c3nc4ccccc4s3)cc2C)c1` [NCGC00103060-01] and `COc1cc(C(=O)Nc2cc(C)c(O)c(-c3nc4ccccc4s3)c2)cc(OC)c1OC` [NCGC00103336-02] cannot be ordered by IC50: over 30 µM for the first, over 30 µM for the second.

First: COc1ccc(-c2nnc(SC(C)C(=O)O)o2)cc1 (stereo not drawn) [NCGC00103120-01]
Second: Cc1cccc(-c2nnc(SCCC(=O)O)o2)c1 [NCGC00103138-01]
The IC50 of the first is 2.8-fold higher: 14 µM for the first, 4.95 µM for the second. The second is the more potent here.

First: O=C(O)CCSc1nnc(-c2ccc(Cl)cc2Cl)o1 [NCGC00103142-01]
Second: Cc1ccc(-c2nnc(SCc3ccccc3C)o2)cc1 [NCGC00103155-01]
The IC50 of the first is 22-fold lower: 0.495 µM for the first, 11.1 µM for the second.

Compared with `Cc1ccc2oc(-c3ccc(C)c(NC(=O)/C=C/c4ccc(Cl)cc4)c3)nc2c1` [NCGC00103154-01], `CCc1ccc2oc(-c3ccc(C)c(NC(=O)c4ccc(C#N)cc4F)c3)nc2c1` [NCGC00103160-01] is higher in IC50: 11.1 µM for the first, over 30 µM for the second.

Going from `Cc1ccc(-c2nnc(SCc3ccccc3C#N)o2)cc1` [NCGC00103157-01] to `CCc1ccc(-c2nc(CSCC(=O)NCc3ccc(C)cc3)c(C)o2)cc1` [NCGC00109429-01], the IC50 rises from 2.21 µM to 14 µM (6.3-fold).

Going from `COc1ccc(-n2nc3ccc(NC(=O)c4c(OC)cccc4OC)cc3n2)cc1` [NCGC00103168-01] to `COc1ccc(CCNc2nc3ccccc3c3nc(-c4cccc(C)c4)nn23)cc1OC` [NCGC00112564-01], the IC50 falls from over 30 µM to 11.1 µM. The second is the more potent here.

Compared with `CC(C)c1ccc(C(=O)Nc2cccc3cccnc23)cc1` [NCGC00103193-01], `Cc1ccc(C(=O)Nc2cccc3cccnc23)cc1Cl` [NCGC00103195-01] is higher in IC50: 9.89 µM for the first, over 30 µM for the second. The first is the more potent here.

Going from `CCC(=O)Nc1cc(-c2nc3ccccc3s2)c(Cl)cc1Cl` [NCGC00103217-01] to `Cc1ccc(C(=O)O)cc1Nc1nc2ccccc2n2nnnc12` [NCGC00106886-01], the IC50 falls from over 30 µM to 12.4 µM. The second is the more potent here.

Going from `COc1ccc(-c2nc3ccccc3o2)cc1NC(=O)c1cccnc1` [NCGC00103240-01] to `CCOc1ccc(C(=O)Nc2cc(-c3nc4cc(OC)ccc4o3)ccc2C)cc1[N+](=O)[O-]` [NCGC00103318-01], the IC50 falls from 12.4 µM to 7.85 µM (1.6-fold).

`Cc1ccc(NCc2nc3ccccc3n2CCOc2ccccc2)cc1` [NCGC00104457-01] and `COc1cccc(CNc2nc3ccccc3c3nc(-c4cccc(C)c4)nn23)c1` [NCGC00112594-01] are within 1.5-fold of each other in IC50: 11.1 µM for the first, 7.85 µM for the second.

`CCc1ccccc1NC(=O)c1nnn(-c2ccc(F)cc2)c1C` [NCGC00104938-01] and `Cc1cccc(NC(=O)Nc2ccc(F)cc2)n1` [NCGC00106833-01] are within 1.5-fold of each other in IC50: 11.1 µM for the first, 12.4 µM for the second.

First: CC(=O)NCCNC(=O)c1ccc2c(=O)n(CCc3ccccc3)c(=O)[nH]c2c1 [NCGC00104963-01]
Second: CC(=O)c1cccc(NC(=O)c2nc3ccccc3n(C)c2=O)c1 [NCGC00107713-01]
The IC50 of the first is 1.8-fold higher: 5.56 µM for the first, 3.13 µM for the second. The second is the more potent here.

First: Cc1ccc(Cl)cc1-n1nnc(-c2nsc(NC(=O)c3ccccc3Cl)n2)c1C [NCGC00105211-01]
Second: COC(=O)c1ccccc1NC(=O)CCc1c(C)nc2cc(-c3ccc(Cl)cc3)nn2c1C [NCGC00110028-01]
The IC50 of the first is higher: over 30 µM for the first, 9.89 µM for the second. The second is the more potent here.

Compared with `O=C(c1cc(-c2ccccc2O)on1)N1CCCCC1` [NCGC00105578-01], `O=C(Nc1cccnc1)c1cc(-c2ccc(Cl)cc2)on1` [NCGC00105781-01] is 4-fold lower in IC50: 9.89 µM for the first, 2.48 µM for the second.

`Cc1ccc(Nc2c(-c3ccc(N(C)C)cc3)nc3[nH]cnn23)cc1` [NCGC00105887-01] and `CN(C)c1ccc(-c2nc3ccccn3c2Nc2ccc3c(c2)OCCO3)cc1` [NCGC00106568-01] are within 1.5-fold of each other in IC50: 12.4 µM for the first, 11.1 µM for the second.

Going from `Oc1ccc(-c2nc3ccccn3c2Nc2ccc3c(c2)OCCO3)cc1` [NCGC00106600-01] to `Cc1ccn2c(Nc3ccc(C(C)C)cc3)c(-c3cccs3)nc2c1` [NCGC00106676-01], the IC50 falls from 17.6 µM to 11.1 µM (1.6-fold).

`COc1ccc(NC(=O)Nc2nnc(C)s2)cc1` [NCGC00106652-01] and `CCOC(=O)c1ccc(NC(=O)CSc2nnc(CNC(=O)c3ccc(OC)cc3)n2CC)cc1` [NCGC00110413-01] are within 1.5-fold of each other in IC50: 11.1 µM for the first, 12.4 µM for the second.

Going from `CCOc1cccc(NC(=O)CSc2ncc(-c3ccccc3)[nH]2)c1` [NCGC00106968-01] to `Cc1ccc(NC(=O)c2ncn(-c3ccccc3)n2)cc1Cl` [NCGC00107303-01], the IC50 falls from over 30 µM to 4.95 µM.

Going from `CCc1cccc(NCc2ccccc2-c2nnc(-c3ccccc3Cl)o2)c1` [NCGC00107400-01] to `Fc1ccc(NCc2ccccc2-c2nnc(-c3ccccc3Cl)o2)cc1Cl` [NCGC00107402-01], the IC50 falls from over 30 µM to 15.7 µM. The second is the more potent here.

Compared with `COc1ccc(Nc2cc(C(=O)NC3CCC(C)CC3)c3ccccc3n2)cc1OC` (stereo not drawn) [NCGC00108132-01], `CCOc1ccc(-c2cc(CCCC(=O)NCCc3ccc(OC)c(OC)c3)no2)cc1` [NCGC00110832-01] is lower in IC50: over 30 µM for the first, 9.89 µM for the second. The second is the more potent here.

`COc1ccccc1-c1cc2nc(C)c(CCC(=O)O)c(C)n2n1` [NCGC00108411-01] and `Cc1ccc(NC(=O)CCc2c(C)nc3cc(-c4ccccc4)nn3c2C)cc1F` [NCGC00109926-01] are within 1.5-fold of each other in IC50: 12.4 µM for the first, 11.1 µM for the second.

First: Cc1ccc(N2C(=O)c3[nH]nc(C)c3C2c2ccc(Cl)cc2)cc1 (stereo not drawn) [NCGC00108483-01]
Second: CC(=O)c1ccc(NC(=O)CCc2c(C)nc3cc(-c4ccc(Cl)cc4)nn3c2C)cc1 [NCGC00110026-01]
The IC50 of the first is 1.6-fold higher: 12.4 µM for the first, 7.85 µM for the second. The second is the more potent here.

Compared with `CCOc1ccc(NC(=O)CCc2c(C)nc3cc(-c4ccc(Cl)cc4)nn3c2C)cc1` [NCGC00110024-01], `CCOC(=O)c1cccc(NC(=O)CCc2c(C)nc3cc(-c4ccc(Cl)cc4)nn3c2C)c1` [NCGC00110030-01] is 3.2-fold higher in IC50: 2.79 µM for the first, 8.81 µM for the second.

Going from `Cc1nc2cc(-c3cccc(F)c3)nn2c(C)c1CCC(=O)NC1CCCCC1` [NCGC00110095-01] to `Cc1cc(F)ccc1NC(=O)c1csc2c1CCC(C)C2` (stereo not drawn) [NCGC00112512-01], the IC50 falls from 8.81 µM to 2.79 µM (3.2-fold).

`CCOc1ccc(-c2cc(CCCC(=O)NCCc3ccc(OCC)c(OCC)c3)no2)cc1` [NCGC00110850-01] and `CCOc1ccc(-c2cc(CCCC(=O)NCCc3ccc(SC)cc3)no2)cc1` [NCGC00110854-01] are within 1.5-fold of each other in IC50: 3.51 µM for the first, 3.13 µM for the second.

First: COc1ccc(C)cc1NC(=O)c1ccc2c(Cl)c3c(nc2c1)CCC3 [NCGC00111420-01]
Second: CCOC(=O)c1ccc(NC(=O)c2csc3c2CCCC3)cc1 [NCGC00112858-01]
The IC50 of the first is 14-fold lower: 1.11 µM for the first, 15.7 µM for the second. The first is the more potent here.

First: O=C(Nc1c(C(=O)Nc2ccc(F)cc2)oc2ccccc12)c1cc2ccccc2o1 [NCGC00111604-01]
Second: COc1ccc(CNC(=O)c2ccc3c(c2)N=C(C)c2c(C)ccc(C)c2S3)cc1 [NCGC00112026-02]
The IC50 of the first is lower: 7.85 µM for the first, over 30 µM for the second.

Work on `CCc1ccc2nc(N3CCC(C(=O)O)CC3)sc2c1` [NCGC00112332-01] yielded an IC50 of 0.0351 µM.
